“And” between values parts separate entries of the source, which are not always exact repeats. Equal values may be shown once. “Also recorded” adds a separate entry of the source. Where no end group is shown, it is not given here.
Key:
E. coli ML35p = experiment: Minimum bactericidal concentration / antimicrobial activity against E. coli ML35p; type: cell-based; conditions: for Minimum Bactericidal Concentration: mean of three independent experiments
vaccinia virus [1] = type: cell-based, vaccinia virus (Wyeth strain)
vaccinia virions (IMV) = system: vaccinia virions (IMV); parameters: species or system vaccinia virus (Wyeth strain); conditions: for alteration of virion structure: 25 μM
vaccinia virus [2] = type: cell-based, vaccinia virus (Wyeth strain); remark: listed apart in the source

## CC[C@H](C)[C@H](NC(=O)[C@H](CCCCN)NC(=O)[C@H](CCC(=O)O)NC(=O)[C@H](CCCCN)NC(=O)[C@H](CO)NC(=O)[C@H](CCCCN)NC(=O)[C@H](CCCNC(=N)N)NC(=O)[C@H](Cc1ccccc1)NC(=O)[C@H](Cc1ccccc1)NC(=O)[C@H](CC(=O)O)NC(=O)CNC(=O)[C@H](CC(C)C)NC(=O)[C@@H](N)CC(C)C)C(=O)NCC(=O)N[C@@H](CCCCN)C(=O)N[C@@H](CCC(=O)O)C(=O)N[C@@H](Cc1ccccc1)C(=O)N[C@@H](CCCCN)C(=O)N[C@@H](CCCNC(=N)N)C(=O)N[C@H](C(=O)N[C@H](C(=O)N[C@@H](CCC(N)=O)C(=O)N[C@@H](CCCNC(=N)N)C(=O)N[C@H](C(=O)N[C@@H](CCCCN)C(=O)N[C@@H](CC(=O)O)C(=O)N[C@@H](Cc1ccccc1)C(=O)N[C@@H](CC(C)C)C(=O)N[C@@H](CCCNC(=N)N)C(=O)N[C@@H](CC(N)=O)C(=O)N[C@@H](CC(C)C)C(=O)N[C@H](C(=O)N1CCC[C@H]1C(=O)N[C@@H](CCCNC(=N)N)C(=O)N[C@H](C(=O)N[C@@H](CCC(=O)O)C(=O)N[C@@H](CO)C(=O)O)[C@@H](C)O)C(C)C)[C@@H](C)CC)C(C)C)[C@@H](C)CC [LL-37, LLGDFFRKSK EKIGKEFKR1 VQRIKDFLRN LVPRTES]
E. coli ML35p
  antimicrobial activity against E. coli ML35p: within reported parameters
Vaccinia virus [1]
  contact time with vaccinia required to detect antiviral activity: At least one hour
  effective antiviral concentration relative to that required for killing of S. aureus: at least one log lower
  lowest concentration with significant reduction in viral replication: 25 µM
Vaccinia virions (IMV)
  Altered virions (%): 67% and 90% and 95%
  Altered virions/virion number: 19/28 and 27/30 and 39/41
Vaccinia virus [2]
  amount of viral mRNA in the tissue culture cells: decreased in proportion to the concentration

## GLLRKGGEKIGEKLKKIGQKIKNFFQKLVPQPEQ (GLLRKGGEKIGEKLKKIGQKIKNFFQKLVPQPEQ) [CRAMP]
E. coli ML35p
  antimicrobial activity against E. coli ML35p: within reported parameters
Vaccinia virus [1]
  effective antiviral concentration relative to that required for killing of S. aureus: at least one log lower
  inhibition of vaccinia virus replication (plaque-forming units): concentration-dependent inhibition; also recorded: able to kill vaccinia virus
  lowest concentration with significant reduction in viral replication: 25 µM
Vaccinia virus [2]
  amount of viral mRNA in the tissue culture cells: decreased in proportion to the concentration

## GLNGPDIYKGUYQFKSVEFD [Peptide 8044]
E. coli ML35p
  antimicrobial activity against E. coli ML35p: no antimicrobial activity; also recorded: did not exhibit antimicrobial activity; also recorded: ^aControl peptide 8044 did not possess antimicrobial activity against ML35p
Vaccinia virus [1]
  inhibition of vaccinia virus replication (plaque-forming units): did not inhibit virus replication; also recorded: no antiviral activity
Vaccinia virions (IMV)
  effect on the structure of the IMV (electron microscopy): did not have an effect on virion structure
  alteration of virion structure: *25 μM HNP-1 and control peptides did not alter virion structure

## HBD-1 (DHYNCVSSGGQCLYSACPIFTKIQGTCYRGKAKCCK; ends and bridges not checked; cysteine pairing not given here; UniProt P60022 33-68, looked up)
E. coli ML35p
  Minimum Bactericidal Concentration: 16.02 µM and 16.03 ± 1.20 µM
Vaccinia virus [1]
  inhibition of vaccinia virus replication (plaque-forming units): did not inhibit viral replication
  inhibition of vaccinia virus replication at concentrations as high as 50 μM: did not inhibit vaccinia virus replication

## HNP-1
E. coli ML35p
  antimicrobial activity against E. coli ML35p: active against E. coli
E. coli ML35p; listed as HNP
  Minimum Bactericidal Concentration: 8.42 µM and 8.42 ± 0.43 µM
Vaccinia virus [1]
  inhibition of vaccinia virus replication (plaque-forming units): did not inhibit virus replication; also recorded: did not inhibit viral replication
  inhibition of vaccinia virus replication at concentrations as high as 50 μM: did not inhibit vaccinia virus replication
Vaccinia virions (IMV)
  effect on the structure of the IMV (electron microscopy): did not have an effect on virion structure
  alteration of virion structure: *25 μM HNP-1 and control peptides did not alter virion structure

— patent US7777000B2, “Anti-viral activity of cathelicidin peptides” (priority 2003, dated 2010)
